IC50 data for 13 molecules are collected here from patent US20230192623A1, “Indazole Derivatives” (Hoffmann-La Roche Inc., priority 2020, published 2023).

For orientation: IC50 means the concentration needed to halve the response being measured.

The target in this test is T1, human cGAS (residues 161-522) (Homo sapiens, UniProt Q8N884).
T1 construct: Recombinantly expressed purified human cGAS (residues 161-522) was used at 25nM; made in house
T1 sequence (Q8N884 161-522): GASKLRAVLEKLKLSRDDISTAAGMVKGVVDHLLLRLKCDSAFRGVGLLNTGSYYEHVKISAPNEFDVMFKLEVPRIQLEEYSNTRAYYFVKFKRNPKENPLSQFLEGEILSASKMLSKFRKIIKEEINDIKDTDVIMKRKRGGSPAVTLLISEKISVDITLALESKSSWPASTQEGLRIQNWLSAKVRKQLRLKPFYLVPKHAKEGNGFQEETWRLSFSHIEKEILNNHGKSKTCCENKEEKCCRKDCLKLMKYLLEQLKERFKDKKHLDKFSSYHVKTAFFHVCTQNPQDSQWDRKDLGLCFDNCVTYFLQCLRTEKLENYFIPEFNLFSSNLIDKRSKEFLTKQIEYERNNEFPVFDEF
The test is described as follows: Malachite Green assay to measure cGAS activity (coupled enzymatic assay, phosphate detection). Type of test: biochemical. Particulars: recombinant purified human cGAS 25 nM; 80 μM ATP, 80 μM GTP, 100 nM ISD; 4 hour at RT; absorbance 620 nm. Here is the method: Malachite Green Assay to Measure cGAS Activity
Compounds were tested for cGAS inhibition in a coupled enzymatic assay based on Phosphate detection by Malachite Green. Final assay conditions were 20 mM TRIS pH 7.5 (Applichem), 5 mM MgCl2 (Sigma) and 0.01% BSA (Sigma) supplemented with 80 μM ATP (Sigma), 80 μM GTP (Sigma) and 100 nM Interferon Stimulating DNA (ISD) (Microsynth). Recombinantly expressed purified human cGAS (residues 161-522) was used at 25nM.
All compounds were prepared as 10 mM stock solutions in DMSO and a 16 pt dilution series in DMSO with a dilution factor of 2.5 was prepared. 1 μL of DMSO dilution series was transferred to 32.3 μL reaction buffer, mixed by pipetting up/down, spun for 1 minute at 3000 rpm and was visually inspected for precipitation. 5 μL of 3-fold enzyme stock solution were transferred to an empty 384-well Black/Clear Flat Bottom Polystyrene NBS (Corning) rows 3-24. Rows 1-2 were filled with assay buffer. Plates were spun 10 seconds at 1000 rpm (164×g). 5 μL of compound intermediate dilution was added and mixed by pipetting up/down to rows 3-24. Rows 1-2 were filled with 3.1% DMSO assay buffer. Plates were spun 10 seconds at 1000 rpm (164×g). 5 μL 3-fold Nucleotide/DNA mix was added to all wells to start the reaction. Plates were spun 10 seconds at 1000 rpm (164×g) and incubated for 4 hour at room temperature (RT) in the dark. 5 μL 4U/mL PPase (Sigma) were added to all wells. Plates spun 10 seconds at 1000 rpm (164×g). 10 μL BioMol green Solution (Enzo Life Sciences) was added to all wells. Plates spun 10 seconds at 1000 rpm (164×g) and incubated 30 minutes at RT in the dark. Absorbance data was collected 620 nm on an EnVision Multilable Reader (Perkin Elmer) and the following measurement settings were used: excitation filter photometric was 620 nm; excitation from the top; measurement height was 1 mm; number of flashes was 30; number of flashes integrated was 1.
All plates are checked for abnormalities and outliers in the Blank Control (no protein, row 1) and the Neutral Control (no compound, row 2) are excluded using the 3*SD rule. Data was normalized to 0 and 100% by Blank and Neutral Control and each curve was fitted and judged using the 4 parameter logistic equation to determine the IC50 for cGAS inhibition.
Table 1 provides IC50 values (μM) for cGAS inhibition obtained for particular examples of the present invention as measured by the above-described assay.
Take `Cc1ccc(-c2cc(C(=O)O)c3cn(Cc4cccc(Cl)c4)nc3c2)c(Cl)c1` [Example 3, 6-(2-Chloro-4-methylphenyl)-2-[(3-chlorophenyl)methyl]indazole-4-carboxylic acid]: the IC50 came to 3.18 µM.
Under `Cc1ccc(-c2cc(C(=O)O)c3cn(Cc4nc(C5CC5)no4)nc3c2)c(Cl)c1` [Example 5, 6-(2-Chloro-4-methylphenyl)-2-((3-cyclopropyl-1,2,4-oxadiazol-5-yl)methyl)indazole-4-carboxylic acid] stands 2.21 µM; under `Cc1ccc(-c2cc(C(=O)O)c3cn(Cc4cccnc4)nc3c2)c(Cl)c1` [Example 6, 6-(2-Chloro-4-methylphenyl)-2-(pyridin-3-ylmethyl)indazole-4-carboxylic acid], 2.93 µM.
Under `Cc1ccc(-c2cc(C(=O)O)c3cn(CCN4CCN(C)CC4)nc3c2)c(Cl)c1` [Example 1, 6-(2-Chloro-4-methylphenyl)-2-(2-(4-methylpiperazin-1-yl)ethyl)indazole-4-carboxylic acid] stands 1.92 µM; under `Cc1ccc(-c2cc(C(=O)O)c3cn(Cc4ccccc4Cl)nc3c2)c(Cl)c1` [Example 2, 6-(2-Chloro-4-methylphenyl)-2-[(2-chlorophenyl)methyl]indazole-4-carboxylic acid], 2.2 µM.
On to `Cc1ccc(-c2cc(C(=O)O)c3cn(CCc4ccccc4)nc3c2)c(Cl)c1` [Example 11, 6-(2-Chloro-4-methylphenyl)-2-phenethyl-2H-indazole-4-carboxylic acid], for which the IC50 was found to be 2.35 µM.
As to `Cc1ccc(-c2cc(C(=O)O)c3cn(Cc4ccccc4)nc3c2)c(Cl)c1` [Example 10, 2-Benzyl-6-(2-chloro-4-methylphenyl)-2H--indazole-4-carboxylic acid], the IC50 came out at 1.37 µM.
Then `Cc1ccc(-c2cc(C(=O)O)c3cn(Cc4ccc(Cl)cc4)nc3c2)c(Cl)c1` [Example 4, 6-(2-Chloro-4-methylphenyl)-2-[(4-chlorophenyl)methyl]indazole-4-carboxylic acid], with 2.76 µM; and `Cc1ccc(-c2cc(C(=O)O)c3cn[nH]c3c2)c(Cl)c1` [Example 13, 6-(2-Chloro-4-methylphenyl)-1H-indazole-4-carboxylic acid], with 4.46 µM; and `Cc1cc(Cl)c(-c2cc(C(=O)O)c3cn[nH]c3c2)cc1F` [Example 12, 6-(2-Chloro-5-fluoro-4-methylphenyl)-1H-indazole-4-carboxylic acid], with 4.59 µM.
Consider `Cc1ccc(-c2cc(C(=O)O)c3cn(Cc4ccccn4)nc3c2)c(Cl)c1` [Example 7, 6-(2-Chloro-4-methylphenyl)-2-(pyridin-2-ylmethyl)indazole-4-carboxylic acid], for which the IC50 worked out at 2.4 µM.
In the case of `Cc1ccc(-c2cc(C(=O)O)c3cn(Cc4nc(C)c(C)o4)nc3c2)c(Cl)c1` [Example 8, 6-(2-Chloro-4-methylphenyl)-2-((4,5-dimethyloxazol-2-yl)methyl)indazole-4-carboxylic acid], the IC50 was found to be 2.74 µM.
Under `Cc1ccc(-c2cc(C(=O)O)c3cn(CC(F)(F)F)nc3c2)c(Cl)c1` [Example 9, 6-(2-Chloro-4-methylphenyl)-2-(2,2,2-trifluoroethyl)-2H-indazole-4-carboxylic acid] stands 1.56 µM.
